Source: patent US20100273806A1, “TETRAHYDROCYCLOPENTA[B]INDOL-3-YL CARBOXYLIC ACID DERIVATIVES USEFUL IN THE TREATMENT OF AUTOIMMUNE AND INFLAMMATORY DISORDERS” (ARENA PHARMACEUTICALS, INC., priority 2007, published 2010)

What was measured:
[1] = system: patients with multiple sclerosis; details: Phase II, relapsing-remitting multiple sclerosis; cited from earlier work
[2] = system: experimental autoimmune uveoretinitis; details: short-term high dose; cited from earlier work
mice = details: oral administration to mice; cited from earlier work
S1P3 receptor = S1P3 receptor (Homo sapiens, UniProt Q99500); details: due to its agonism of the S1P3 receptor; cited from earlier work
C57BL/6 mice = details: prophylactic oral administration, 1 mg/kg, three times a week; cited from earlier work
female NOD/Ltj mice = test: Cyclophosphamide induced type I diabetes in NOD mice; format: in vivo, mouse; details: 30 mg/kg orally once a day from day 0 until day 25, compared with vehicle; FIG. 6
Experimental: Animals: Baseline blood glucose measurements were taken from 9-10 week old female NOD/Ltj mice (Jackson Laboratory, Bar Harbor, Me.) to ensure that they were normoglycemic (blood glucose is 80-120 mg/dL) prior to initiation of the experiment. Blood glucose was measured from tail bleeds using a one touch ultra kit and test strips (LifeScan, Milpitas, Calif.).
Cyclophosphamide induction of Type I diabetes: On day 0 and day 14, normoglycemic NOD mice were injected intraperitoneally with 4 mg cyclophosphamide monohydrate (200 mg/kg) dissolved in 0.9% saline. If mice were diabetic (blood glucose is >250 mg/dL) they were not given a booster dose of cyclophosphamide on day 14.
Drug Treatment: Mice were dosed orally, with vehicle or test compound, once a day from day 0 until day 25. Compounds were suspended in 0.5% methyl cellulose vehicle using a sonicator to ensure uniform suspension. Mice were weighed twice weekly and were dosed according to weight. Dosing volume was 5 mL/kg. Test compound was dosed at 30 mg/kg. Blood glucose was measured twice weekly. After dosing was completed at day 25, the mice continued to be monitored and blood glucose measurements were taken once a week for 3 weeks.

[3] = system: C57BL/6 mice (recipients of Balbc/J skin grafts); test: Mouse skin allograft survival; format: in vivo; details: 3, 10 and 30 mg/kg orally once a day, compared with vehicle; FIG. 3
Experimental: Animals: Female BALBc/J mice (6 to 7 weeks of age at start of study) (Jackson Laboratory, Bar Harbor, Me.) were housed four per cage and maintained in a humidity- (40-60%) and temperature- (68-72° F.) controlled facility on a 12 h:12 h light/dark cycle (lights on at 6:30 am) with free access to food (Harlan Teklad, Orange, Calif., Rodent Diet 8604) and water. Female C57BL/6 mice (8 to 10 weeks of age at start of study) (Jackson Laboratory, Bar Harbor, Me.) were similarly housed and maintained. Mice were allowed one week of habituation to the animal facility before testing. […]
Clinical scoring: Skin allografts were inspected and digital images recorded daily until rejection, which was defined as the first day on which more than 80% of the graft is necrotic. […] In an optional related study, on posttransplantation day 5 isolated lymphocytes from peripheral lymph nodes and spleen were counted and characterized for activation markers (e.g., T-cell activation markers) by flow cytometry. Also on day 5, grafts were removed from transplanted recipients, cut into small fragments, digested with collagenase and sedimented over Ficoll-Paque (Pharmacia Biotech, Uppsala, Sweden) to isolate graft-infiltrating lymphocytes, which were counted and characterized for activation markers (e.g., T-cell activation markers) by flow cytometry. […]

Female C57BL/6 mice = test: MOG-induced EAE in mice; format: in vivo, mouse; details: 30 mg/kg orally once a day from day 3 until day 21, compared with vehicle; FIG. 5
Experimental: Animals: Female C57BL/6 mice (8 to 10 weeks of age at start of study) (Jackson Laboratory, Bar Harbor, Me.) were housed four per cage and maintained in a humidity- (40-60%) and temperature- (68-72° F.) controlled facility on a 12 h:12 h light/dark cycle (lights on at 6:30 am) with free access to food (Harlan Teklad, Orange, Calif., Rodent Diet 8604) and water. Mice were allowed one week of habituation to the animal facility before testing.
Induction of EAE: Mice were immunized subcutaneously, 50 μL per hind flank, with a total of 100 μg MOG35-55peptide emulsified 1:1 with Complete Freund's adjuvant containing 4 mg/ml heat-killed Mycobacterium tuberculosis. Mice also received 200 ng pertussis toxin intraperitoneally on the day of immunization and 48 h later.
Clinical scoring: Severity of disease symptoms was scored as follows (in increasing order of severity): 0=normal; 1=limp tail OR hind limb weakness; 2=limp tail AND limb weakness/weakness of 2 or more limbs; 3=severe limb weakness or single limb paralysis; 4=paralysis of 2 or more limbs; 5=death.
Drug treatment: Mice were dosed orally, with vehicle or test compound, once a day from day 3 until day 21. Dosing volume is 5 ml/kg. Test compound was dosed at 30 mg/kg. […] Mice were monitored daily from day 7 onward for disease symptoms. After the last dose on day 21, disease progression was monitored daily for 2 more weeks.

Female Lewis rats = test: Collagen-induced arthritis in rats (ankle diameter); format: in vivo, rat; details: 3, 10 and 30 mg/kg p.o., q.d., day 0 through day 16, compared with vehicle; FIG. 4
Experimental: Female Lewis rats were used in this study. Acclimated animals were anesthetized with isoflurane and given the first collagen injection (day 0). On day 6, they were anesthetized again for the second collagen injection. Collagen was prepared by making a 4 mg/mL solution in 0.01 N acetic acid. Equal volumes of collagen and incomplete Freund's adjuvant were emulsified by hand mixing until a bead of this material held its form when placed in water. Each animal received 300 μL of the mixture each time, spread over 3 subcutaneous sites on the back.
Treatment (p.o., q.d., 5 mL/kg dosing volume) began on day 0 and continued through day 16 with vehicle or compounds given at 24 h intervals. Rats were weighed on days 0, 3, 6 and 9 through 17 and caliper measurements of the ankles taken on days 9 through 17. The 2nd enantiomer of Compound 7 (isolated after resolution of compound 7 by HPLC, with a retention time of 24 min per the conditions reported in Example 1.22) was dosed at 3, 10 and 30 mg/kg.

S1P3 receptor, sequence (Q99500 whole entry): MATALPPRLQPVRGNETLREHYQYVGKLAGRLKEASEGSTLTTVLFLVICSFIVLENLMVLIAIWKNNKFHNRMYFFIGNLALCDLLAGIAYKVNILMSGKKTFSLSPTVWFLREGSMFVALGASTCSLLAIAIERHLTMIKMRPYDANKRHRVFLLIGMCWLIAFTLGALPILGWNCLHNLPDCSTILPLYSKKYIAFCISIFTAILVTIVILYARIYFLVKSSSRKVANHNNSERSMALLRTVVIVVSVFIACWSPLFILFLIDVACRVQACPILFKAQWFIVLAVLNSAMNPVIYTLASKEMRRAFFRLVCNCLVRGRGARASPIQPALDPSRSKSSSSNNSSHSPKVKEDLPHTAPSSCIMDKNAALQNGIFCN

Question: Which “number of lesions detected by MRI and clinical disease activity” value [1] does the source give for CCCCCCCCc1ccc(CCC(N)(CO)CO)cc1 [FTY720] here?
Answer: reduce the number of lesions detected by magnetic resonance imaging (MRI) and clinical disease activity

Question: What about the ocular infiltrates [2] of the same molecule?
Answer: rapidly reduced ocular infiltrates

Question: What about the VEGF-induced vascular permeability (mice) of the same molecule?
Answer: potently blocked VEGF-induced vascular permeability

Question: What about the “adverse event in clinical trials” value (S1P3 receptor) of the same molecule?
Answer: transient asymptomatic bradycardia

Question: And the “development of EAMG” value (C57BL/6 mice)?
Answer: completely prevented the development of experimental autoimmune myasthenia gravis (EAMG)

Question: What does the source list for N#Cc1cc(OC(F)(F)F)cc(-c2nc(-c3ccc4[nH]c5c(c4c3)CCC5CC(=O)O)no2)c1 (stereo not drawn) [2nd enantiomer of Compound 7, 2-(7-(5-(3-cyano-5-(trifluoromethoxy)phenyl)-1,2,4-oxadiazol-3-yl)-1,2,3,4-tetrahydrocyclopenta[b]indol-3-yl)acetic acid]?
Answer: incidence of diabetes / promotion of normoglycemia (female NOD/Ltj mice): exhibited activity in the NOD mouse type I diabetes assay; delay of time of rejection of the skin allograft [3]: exhibited activity in the mouse skin allograft assay; severity of disease symptoms in EAE (Female C57BL/6 mice): exhibited activity in the mouse EAE assay; mean ankle diameter (Female Lewis rats): exhibited activity for reducing mean ankle diameter in the rat
